Assay results taken from ChEMBL document CHEMBL1121775, “Synthesis and antimalarial effects of N2-aryl-N4-[(dialkylamino)alkyl]- and N4-aryl-N2-[(dialkylamino)alkyl]-2,4-quinazolinediamines” (J Med Chem, 1981).
“And” between values parts separate entries of the source, which are not always exact repeats. Equal values may be shown once.

How the values were obtained:
Assay type in all cases: functional
[1] = tested on: Plasmodium berghei; experiment: Antimalarial effect against trophozoite-induced Plasmodium berghei in mice (Mus musculus) after 40 mg/kg subcutaneous dose
[2] = tested on: Plasmodium berghei; experiment: Antimalarial effect against trophozoite-induced Plasmodium berghei in mice (Mus musculus) after 20 mg/kg subcutaneous dose
[3] = tested on: Plasmodium berghei; experiment: Antimalarial effect against trophozoite-induced Plasmodium berghei in mice (Mus musculus) at 80 mg/kg subcutaneous dose
[4] = tested on: Plasmodium berghei; experiment: (§1) Antimalarial effect against trophozoite-induced Plasmodium berghei in mice (Mus musculus) at 640 mg/kg subcutaneous dose
[5] = The ratio of SD90 of the quinine hydrochloride, to the SD90 of the test substance for the Dose of 36 mg/kg
[6] = tested on: Plasmodium berghei; experiment: Antimalarial effect against trophozoite-induced Plasmodium berghei in mice (Mus musculus) at 320 mg/kg subcutaneous dose
[7] = tested on: Mus musculus; experiment: Number of mice cured at a dose of 640 mg/kg sc; settings: route subcutaneous
[8] = tested on: Plasmodium berghei; experiment: Antimalarial effect against trophozoite-induced Plasmodium berghei in mice (Mus musculus) at 160 mg/kg subcutaneous dose
[9] = tested on: Mus musculus; experiment: Antimalarial effect against trophozoite induced Plasmodium berghei in mice (Mus musculus) at dosage of 40 mg/kg after subcutaneous administration
[10] = tested on: Plasmodium berghei; experiment: Antimalarial activity against trophozoite-induced Plasmodium berghei in mice (Mus musculus)
[11] = tested on: Plasmodium berghei; experiment: as §1; remark: listed apart in the source
[12] = The ratio of SD90 of the quinine hydrochloride, to the SD90 of the test substance for the Dose of 74.5 mg/kg
[13] = The ratio of SD90 of the quinine hydrochloride, to the SD90 of the test substance for the Dose of 37 mg/kg/day
[14] = The ratio of SD90 of the quinine hydrochloride, to the SD90 of the test substance for the Dose of 69 mg/kg
[15] = tested on: Plasmodium berghei; experiment: Antimalarial activity against trophozoite-induced Plasmodium berghei in mice (Mus musculus) at 160 mg/kg subcutaneous dose
[16] = tested on: Mus musculus; experiment: Number of mice cured at a subcutaneous dose of 320 mg/kg.
[17] = The ratio of SD90 of the quinine hydrochloride, to the SD90 of the test substance for the Dose of 20 mg/kg
[18] = tested on: Mus musculus; experiment: Number of mice cured at a subcutaneous dose of 160 mg/kg.
[19] = tested on: Mus musculus; experiment: Number of mice cured at a subcutaneous dose of 640 mg/kg.
[20] = The ratio of SD90 of the quinine hydrochloride, to the SD90 of the test substance for the Dose of 2.2 mg/kg
[21] = The ratio of SD90 of the quinine hydrochloride, to the SD90 of the test substance for the Dose of 70 mg/kg
[22] = tested on: Mus musculus; experiment: Antimalarial effect against trophozoite-induced Plasmodium berghei in mice (Mus musculus) at dosage of 640 mg/kg after subcutaneous administration; No. of mice (Mus musculus) surviving after 60 days 4
[23] = tested on: Mus musculus; experiment: Antimalarial effect against trophozoite induced Plasmodium berghei in mice (Mus musculus) at dosage of 160 mg/kg after subcutaneous administration; No. of mice (Mus musculus) surviving after 60 days 1
[24] = tested on: Mus musculus; experiment: Antimalarial effect against trophozoite-induced Plasmodium berghei in mice (Mus musculus) at dosage of 320 mg/kg after subcutaneous administration; No. of mice (Mus musculus) surviving after 60 days 2
[25] = The ratio of SD90 of the quinine hydrochloride, to the SD90 of the test substance for the Dose of 38 mg/kg

Compound | MST [2] [days] | MST [3] [days] | MST ([4]; 640 mg/kg) | MST [6] [days] | MST [8] [days] | SD90 [10] [mg/kg/day] | MST ([1]; 40 mg/kg) | MST ([8]; 160 mg/kg) | further results
CCN1CCCC(Nc2nc(Nc3cc(Cl)cc(Cl)c3)nc3ccc(Cl)cc23)C1 (stereo not given) | 0.2 | 0.6 | 7.8 days and 4.8 days | 6.4 | 1 | 36 | – | – | MST [1]: 0.2 days; Ratio [5]: 2.1; No. of survivals [7]: 3; MST [9]: 0.4 days
C=C[C@H]1CN2CC[C@H]1C[C@H]2[C@H](O)c1ccnc2ccc(OC)cc12 [QUININE] | 0.2 | 1.4 | – | 3.2 | 2 | 74.5 | – | – | MST [1]: 1 days; MST [11]: 5.4 days; Ratio [12]: 1
FC(F)(F)c1ccc(Nc2nc(NCCN3CCCC3)c3ccccc3n2)cc1 | 0.2 | 2.4 | – | 10.2 | – | 37 | 0.4 days and 0.8 days | 4.8 days and 3.4 days | Ratio [13]: 2; MST ([11]; 640 mg/kg): 16.2 days and 13.2 days
CCN(CC)CCNc1nc(Nc2ccc(Cl)c(Cl)c2)nc2ccc(NCc3ccc(Cl)c(Cl)c3)cc12 | 0.2 | 0.4 | – | 5.6 | 3.8 | 69 | 0.2 days and 0.4 days | – | Ratio [14]: 1.1
CN1CCCC1CCNc1nc(Nc2cc(Cl)cc(Cl)c2)nc2ccc(Cl)cc12 (stereo not given) | 0.6 | 5 | – | 21.1 | – | 20 | 3.6 days and 4 days | – | MST ([15]; 160 mg/kg): 11.1 days and 10.3 days; No. of survivals [16]: 1; No. of survivals [7]: 5; Ratio [17]: 3.8; No. of survivals [18]: 1
CCN1CCCC(Nc2nc(Nc3ccc(Cl)c(Cl)c3)nc3ccccc23)C1 (stereo not given) | 0.4 | 1 | 13.8 days and 24.2 days | 13.8 | – | 2.2 | 0.6 days and 0.5 days | 6.2 days and 7.3 days | No. of cured ([19]; 640 mg/kg): 3 and 2; Ratio [20]: 34
Clc1ccc(Nc2nc(NCCN3CCCC3)c3ccccc3n2)cc1Cl | 0.3 | 3.1 | – | 9.3 | – | 70 | 2.1 days and 2.3 days | 6.5 days and 7.1 days | Ratio [21]: 1.1; MST ([11]; 640 mg/kg): 15.9 days and 13.7 days
CCN(CC)C1CCC(Nc2nc(Nc3ccc(Cl)c(Cl)c3)nc3ccc(Cl)cc23)CC1 (stereo not given) | 1.3 | 14.9 | – | – | – | – | 13.3 days and 12.9 days | – | MST [22]: 12.9 days; MST [23]: 13.9 days; MST [15]: 12.9 days; No. of survivals [16]: 2; MST [24]: 27.2 days; MST [4]: 18.4 days; No. of survivals ([7]; 640 mg/kg): 4 and 3; No. of survivals [18]: 1
CCN1CCCC(Nc2nc(Nc3ccc(Cl)cc3)nc3ccccc23)C1 (stereo not given) | 0.2 | 3 | 28.3 days and 28.8 days | 20 | – | 38 | 0.4 days and 0.6 days | 10.6 days and 11.4 days | Ratio [25]: 2; No. of cured [19]: 3
